According to ChEMBL document CHEMBL5050843, “Amide substituted thiazoles as protein secretion inhibitors” (2019):

How the values were obtained:
[1] = Inhibition of constitutively active VCAMss-Gluc secretion in human Flp-In-T-REx-293 cells measured by Gaussia luciferase reporter gene method; format: functional, cell-based
[2] = Inhibition of constitutively active PR1ss-Gluc secretion in human Flp-In-T-REx-293 cells measured by Gaussia luciferase reporter gene method; format: functional, cell-based

| Compound | IC50 [1] [µM] | IC50 [2] [µM] |
| --- | --- | --- |
| Cc1cc(C(=O)Nc2nc(C(C)(C)C)cs2)no1 | > 80 | > 80 |
| CC(C)(C)c1csc(NC(=O)c2cc3cc(-c4cccnc4)ccc3s2)n1 | > 25 | > 25 |
| CC(C)(C)c1csc(NC(=O)Cc2cccc(C#N)c2)n1 | 15.4 | > 25 |
| CC(C)(C)c1csc(NC(=O)CC2CCOCC2)n1 | > 25 | > 25 |
| CC(C)(C)c1csc(NC(=O)c2ccc3c(c2)OCCN3)n1 | > 25 | > 25 |
| CC(C)(C)c1csc(NC(=O)c2cc3ccc(Cl)cc3s2)n1 | > 25 | > 25 |
| O=C(Cc1csc2ccc(Cl)cc12)Nc1nc(Cc2ccccc2)cs1 | 19.9 | > 25 |
| CC(C)(C)c1csc(NC(=O)C(C)(C)c2ccccc2)n1 | 14.7 | > 25 |
| CC(C)(C)c1csc(NC(=O)Cn2cnc3ccccc32)n1 | > 25 | > 25 |
| CC(C)(C)c1csc(NC(=O)COC2CCCCC2)n1 | > 25 | > 25 |
| CC(C)(C)c1csc(CNC(=O)Cc2csc3ccccc23)n1 | > 25 | > 25 |
| Cc1cc(C(=O)N(C)c2nc(C(C)(C)C)cs2)cs1 | > 25 | > 25 |
| C[C@H](C(=O)Nc1nc(C(C)(C)C)cs1)c1ccccc1 | > 25 | > 25 |
| CC(C)(C)c1csc(NC(=O)C2=CCCCC2)n1 | 23.7 | > 25 |
| CC(C)(C)c1csc(NC(=O)C2CCCC2)n1 | 17 | > 25 |
| CC(C)(C)c1nc(NC(=O)Cc2csc3ccc(Cl)cc23)sc1Cl | 11.8 | > 25 |
| CC(C)(C)c1csc(NC(=O)C2Cc3ccccc3C2)n1 | 11.2 | > 25 |
| CC(C)(C)c1csc(NC(=O)C2CCOCC2)n1 | > 25 | > 25 |
| CC(C)(C)c1csc(NC(=O)c2ccccc2)n1 | 10.4 | > 80 |
| CC(C)(CCO)c1csc(NC(=O)Cc2csc3ccc(Cl)cc23)n1 | > 25 | > 25 |

| Compound | IC50 [1] [µM] | IC50 [2] [µM] |
| --- | --- | --- |
| CC(C)(C)c1csc(NC(=O)C2=CCCC2)n1 | > 25 | > 25 |
| CC(C)(C)c1csc(NC(=O)c2cccc(N3CCCC3)c2)n1 | > 25 | > 25 |
| CC(C)(C)c1csc(NC(=O)c2ccc3[nH]ncc3c2)n1 | 20.7 | > 25 |
| CC(C)(C)c1csc(NC(=O)CN2CCCCC2)n1 | > 25 | > 25 |
| CC(C)(C)c1csc(NC(=O)c2cc3cc(C(N)=O)ccc3s2)n1 | > 25 | > 25 |
| CC(C)(C)c1csc(NC(=O)[C@H](O)c2cccc(Cl)c2)n1 | > 25 | > 25 |
| CC(C)(C)c1csc(NC(=O)c2ccc3cn[nH]c3c2)n1 | > 25 | > 25 |
| CC(C)(C)c1csc(NC(=O)Cc2c[nH]c3ccccc23)n1 | > 25 | > 25 |
| CC(C)(C)c1csc(NC(=O)c2cccc(C#N)c2)n1 | > 25 | > 25 |
| COc1cccc(C(=O)Nc2nc(C(C)(C)C)cs2)c1 | > 25 | > 25 |
| CC(C)(C)c1csc(NC(=O)C2CCCc3ccccc32)n1 (stereo unspecified) | > 25 | > 25 |
| CC(C)(C)c1csc(NC(=O)CCc2ccccc2)n1 | 17.4 | > 25 |
| COCCC(C)(C)c1csc(NC(=O)Cc2csc3ccc(Cl)cc23)n1 | > 25 | > 25 |
| CC(C)(C)c1csc(NC(=O)c2cc3cc(-c4ccccc4)ccc3s2)n1 | 11 | > 25 |
| Cc1csc(C(=O)Nc2nc(C(C)(C)C)cs2)c1 | 17.1 | > 25 |
| CC(C)(C)c1csc(NC(=O)c2cc3cc(C4=CCCCC4)ccc3s2)n1 | 16.2 | > 25 |
| CC(C)(C)c1csc(NC(=O)c2cccc(CN3CCOCC3)c2)n1 | > 25 | > 25 |
| CC(C)(C)c1csc(NC(=O)[C@@H]2CCCO2)n1 | > 25 | > 25 |
| Cn1cc(C(=O)Nc2nc(C(C)(C)C)cs2)cn1 | 22.2 |  |
| Cc1cc(C(=O)Nc2nc(C(C)C)cs2)cs1 | 22.8 |  |

The next compounds have a lower IC50 [1] than those just listed; values first:

| IC50 [1] [µM] | IC50 [2] [µM] | Compound |
| --- | --- | --- |
| 0.775 | > 25 | C=CCC(C)(C)c1csc(NC(=O)Cc2csc3ccc(Cl)cc23)n1 |
| 4.51 | > 25 | Cn1cc(CC(=O)Nc2nc(C(C)(C)C)cs2)c2ccccc21 |
| 3.92 | > 25 | CC(C)(C)c1csc(NC(=O)C(Cc2ccccc2)c2csc3ccc(Cl)cc23)n1 (stereo unspecified) |
| 1.4 | > 25 | CC(C)(C)c1csc(NC(=O)Cc2csc3ccc(Br)cc23)n1 |
| 9.54 | > 25 | CC[C@@H](C(=O)Nc1nc(C(C)(C)C)cs1)c1ccccc1 |
| 8.93 | > 25 | CCOC(=O)CC(C)(C)c1csc(NC(=O)Cc2cc(Cl)cc(Cl)c2)n1 |
| 3.2 | > 25 | Cc1cccc2scc(CC(=O)Nc3nc(C(C)(C)C)cs3)c12 |
| 2.21 | > 25 | Cn1c(C(=O)Nc2nc(C(C)(C)C)cs2)cc2ccccc21 |
| 9.27 | > 25 | CC(C)(C)c1csc(NC(=O)c2cc3cc(Cl)ccc3s2)n1 |
| 9.01 | > 25 | CC(C)(C)c1csc(NC(=O)C(C)(C)C2CCCCC2)n1 |
| 8.18 | > 25 | CC(C)(C)c1csc(NC(=O)Cc2cc(F)c(F)c(F)c2)n1 |
| 3.22 | > 25 | CC(C)(C)c1csc(NC(=O)c2cc3cccc(Cl)c3s2)n1 |
| 1.54 | > 25 | CC(C)(C)c1csc(NC(=O)Cc2cc(Cl)cc(C(F)(F)F)c2)n1 |
| 3.67 | > 25 | CC(C)(C)c1csc(NC(=O)Cc2cn(Cc3cccnc3)c3ccc(Cl)cc23)n1 |
| 9.82 | > 25 | CC(C)(C)c1csc(NC(=O)CC2CCCC2)n1 |
| 4.97 | > 25 | CC#Cc1ccc2sc(C(=O)Nc3nc(C(C)(C)C)cs3)cc2c1 |
| 5.7 | > 25 | CC(C)(C)c1csc(NC(=O)c2cc3c(Cl)cccc3s2)n1 |
| 2.05 | > 25 | CC(C)(C)c1csc(NC(=O)Cc2cn(C(=O)c3ccccc3)c3ccc(Cl)cc23)n1 |
| 3.45 | > 25 | CC(C)(C)c1csc(NC(=O)Cc2cccc3ccccc23)n1 |
| 0.464 | > 25 | CC(C)(C)c1csc(NC(=O)Cc2cn(Cc3cccc(Cl)c3)c3ccc(Cl)cc23)n1 |
| 4.93 | > 25 | CC(C)(C)c1csc(NC(=O)c2cc3ccccc3s2)n1 |
| 5.07 | > 25 | CC(C)(C)c1csc(NC(=O)CC2CCCCCC2)n1 |
| 7.85 | > 25 | CC(C)(C)c1csc(NC(=O)Cc2cccc(Cl)c2)n1 |
| 3.21 | > 25 | CC(C(=O)Nc1nc(C(C)(C)C)cs1)c1csc2ccc(Cl)cc12 (stereo unspecified) |
| 6.09 | > 25 | CC(C)(C)c1csc(NC(=O)CC2CCCCC2)n1 |
| 8.75 | > 25 | CC(C)(C)c1csc(NC(=O)Cn2ccc3ccccc32)n1 |
| 8.6 | > 25 | CC(C)(C)c1csc(NC(=O)C(C)(C)c2cccc(Cl)c2)n1 |
| 5.3 | > 25 | CC(C)(C)c1csc(NC(=O)Cc2coc3ccccc23)n1 |
| 1.69 | > 25 | CC(C)(C)c1csc(NC(=O)Cc2cc(Cl)cc(Cl)c2)n1 |
